Data published in US8541462B2, “Tetrahydrocarbazole derivatives as ligands of G-protein coupled receptors” (AEterna Zentaris GmbH, priority 2007, dated 2013).

molecular target: T1, LHRH receptor (endogenous GnRH receptor of alpha T3-1 cell line) (Mus musculus, UniProt Q01776); assay: LHRH-receptor binding assay (displacement of [125I] cetrorelix on alpha T3-1 cells); settings: WO 2006/005484-substance 75 = 100%
T1 construct: alpha T3-1 cell line with endogenous GnRH receptor expression; endogenous in cells; host or cells: alpha T3-1 cells (intact cell suspension)
T1 sequence (Q01776 1-327): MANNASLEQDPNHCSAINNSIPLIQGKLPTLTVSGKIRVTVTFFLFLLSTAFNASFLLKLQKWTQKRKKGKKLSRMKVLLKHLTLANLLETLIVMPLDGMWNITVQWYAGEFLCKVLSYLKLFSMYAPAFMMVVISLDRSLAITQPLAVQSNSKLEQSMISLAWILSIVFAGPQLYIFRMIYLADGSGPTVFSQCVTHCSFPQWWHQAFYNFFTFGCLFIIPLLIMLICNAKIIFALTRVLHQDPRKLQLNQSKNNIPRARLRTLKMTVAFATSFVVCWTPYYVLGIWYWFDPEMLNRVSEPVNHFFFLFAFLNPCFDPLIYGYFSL
Method: For LHRH receptor binding studies, an assay system using alpha T3-1 cell line with endogenous GnRH receptor expression was employed (Windle et al., Mol. Endocrinol. 1990, 4(4): 597-603).
Iodinated cetrorelix was used as a tracer with about 80% of peptide capable of specific receptor association.
For displacement binding assays, the cells were incubated with approximately 200 pM [^125l] cetrorelix and different concentrations of unlabeled test compounds as competitor. The cell suspension in binding medium was layered on top of silicon/paraffin oil, incubated for 60 min at 37° C. and separated by centrifugation. The tips of the tubes containing the cell pellet were cut off, subsequently cell pellet and supernatant were analyzed by gamma-radiation analysis.
The amount of unspecific binding was determined by including unlabeled cetrorelix at 1 μM final concentration and was typically ≦10% of total binding. IC50 values were calculated by using the GraphPad Prism analysis program (GraphPad Software Inc.).

Row | SMILES | Normalized Affinity
1 | CCC(C)[C@H](NC(=O)Cc1ccccc1F)C(=O)N[C@]1(C(=O)N[C@H](C(=O)Nc2ccc(OC)c(O)c2)C(C)CC)CCc2[nH]c3c(C(F)(F)F)cccc3c2C1 (stereo partly drawn) [Compound 69, (R)-3-{(S)-2-[2-(2-Fluoro-phenyl)-acetylamino]-3-methyl-pentanoylamino}-8-trifluoromethyl-2,3,4,9-tetrahydro-1H-carbazole-3-carboxylic acid [(S)-1-(3-hydroxy-4-methoxy-phenylcarbamoyl)-2-methyl-butyl]-amide] | 529%
2 | CCC(C)[C@H](NC(=O)Cc1ccccc1F)C(=O)N[C@]1(C(=O)N[C@H](C(=S)NCc2nnc(C)o2)C(C)CC)CCc2[nH]c3c(C(F)(F)F)cccc3c2C1 (stereo partly drawn) [compound 118, (R)-3-{(S)-2-[2-(2-Fluoro-phenyl)-acetylamino]-3-methyl-pentanoylamino}-8-trifluoromethyl-2,3,4,9-tetrahydro-1H-carbazole-3-carboxylic acid {(S)-2-methyl-1-[(5-methyl-[1,3,4]oxadiazol-2-ylmethyl)-thiocarbamoyl]-butyl}-amide] | 285%
3 | CCC(C)[C@H](NC(=O)Cc1ccccc1F)C(=O)N[C@]1(C(=O)N[C@H](C(=O)Nc2nnn(C(C)(C)C)n2)C(C)CC)CCc2[nH]c3c(C(F)(F)F)cccc3c2C1 (stereo partly drawn) [compound 178, (R)-3-{(S)-2-[2-(2-Fluoro-phenyl)-acetylamino]-3-methyl-pentanoylamino}-8-trifluoromethyl-2,3,4,9-tetrahydro-1H-carbazole-3-carboxylic acid [(S)-1-(2-tert-butyl-2H-tetrazol-5-ylcarbamoyl)-2-methyl-butyl]-amide] | 370%

More lines, now with the values ahead:

Row | Normalized Affinity | SMILES
4 | 247% | CCC(C)[C@H](NC(=O)Cc1ccccc1F)C(=O)N[C@]1(C(=O)N[C@H](C(=S)NCCCn2ccnc2)C(C)CC)CCc2[nH]c3c(C(F)(F)F)cccc3c2C1 (stereo partly drawn) [Compound 74, (R)-3-{(S)-2-[2-(2-Fluoro-phenyl)-acetylamino]-3-methyl-pentanoylamino}-8-trifluoromethyl-2,3,4,9-tetrahydro-1H-carbazole-3-carboxylic acid [(S)-1-(3-imidazol-1-yl-propylthiocarbamoyl)-2-methyl-butyl]-amide]
5 | 247% | CCC(C)[C@H](NC(=O)Cc1ccccc1F)C(=O)N[C@]1(C(=O)N[C@H](C(=S)NCc2ccncc2)C(C)CC)CCc2[nH]c3c(C(F)(F)F)cccc3c2C1 (stereo partly drawn) [Compound 60, (R)-3-{(S)-2-[2-(2-Fluoro-phenyl)-acetylamino]-3-methyl-pentanoylamino}-8-trifluoromethyl-2,3,4,9-tetrahydro-1H-carbazole-3-carboxylic acid {(S)-2-methyl-1-[(pyridin-4-ylmethyl)-thiocarbamoyl]-butyl}-amide]
6 | 411% | CCC(C)[C@H](NC(=O)Cc1ccccc1F)C(=O)N[C@]1(C(=O)N[C@H](C(=O)Nc2ccc(OC)cc2O)C(C)CC)CCc2[nH]c3c(C(F)(F)F)cccc3c2C1 (stereo partly drawn) [Compound 71, (R)-3-{(S)-2-[2-(2-Fluoro-phenyl)-acetylamino]-3-methyl-pentanoylamino}-8-trifluoromethyl-2,3,4,9-tetrahydro-1H-carbazole-3-carboxylic acid [(S)-1-(2-hydroxy-4-methoxy-phenylcarbarnoyl)-2-methyl-butyl]-amide]

tested on: not listed separately; assay: Metabolic stability testing in liver microsomes; format: in vitro ADME; settings: mixed-gender human liver microsomes, 1 mg microsomal protein/mL, initial concentration 10 μM, 60 minutes at 37° C.; WO 2006/005484-substance 7 = 100%
Method: Subcellular fractions of different tissues can be prepared easily by ultracentrifugation. Most commonly these are prepared from the liver of animals and human donors to gain information about the potential hepatic clearance of compounds (first-pass elimination of drugs). Human or animal (e.g. dog, mouse, rat) subcellular fraction like liver microsomes, or possibly the fraction called S9 have therefore become a very commonly and widely used as an in vitro model to investigate mainly cytochrome P450 dependent phase I (but also phase II) metabolism that takes place in the liver.
In order to reflect the standard proportion of the enzymes in human and animal livers, liver microsomes are usually pooled from a number of […] of the same sex (or mixed-gender). By supplementing the liver microsomes with relevant cofactors and other components it is possible to investigate and distinguish between CYPs, flavin-containing monooxygenase (FMO) and UDP-glucuronosyltransferase (UGT) activities.
Selected compounds of the invention were tested for their stability in mixed-gender human liver microsomes and compared to pertinent prior art compounds.
Under the test conditions applied (1 mg microsomal protein/mL, initial concentration of 10 μM, and incubation for 60 minutes at 37° C.) the following normalized results were obtained.

Row | SMILES | Normalized microsomal stability
7 | CCC(C)[C@H](NC(=O)Cc1ccccc1F)C(=O)N[C@]1(C(=O)N[C@H](C(=O)Nc2ccc(OC)c(O)c2)C(C)CC)CCc2[nH]c3c(C(F)(F)F)cccc3c2C1 (stereo partly drawn) [Compound 69, (R)-3-{(S)-2-[2-(2-Fluoro-phenyl)-acetylamino]-3-methyl-pentanoylamino}-8-trifluoromethyl-2,3,4,9-tetrahydro-1H-carbazole-3-carboxylic acid [(S)-1-(3-hydroxy-4-methoxy-phenylcarbamoyl)-2-methyl-butyl]-amide] | 1041%
8 | CC[C@H](C)[C@H](NC(=O)Cc1ccccc1F)C(=O)N[C@]1(C(=O)N[C@H](c2nc(-c3ccccc3)cs2)[C@@H](C)CC)CCc2[nH]c3c(C(F)(F)F)cccc3c2C1 [compound 249, (R)-3-{(2S,3S)-2-[2-(2-Fluoro-phenyl)-acetylamino]-3-methyl-pentanoylamino}-8-trifluoromethyl-2,3,4,9-tetrahydro-1H-carbazole-3-carboxylic acid [(1S,2S)-2-methyl-1-(4-phenyl-thiazol-2-yl)-butyl]-amide] | 1580%
9 | CCNC(=S)NC[C@@H](NC(=O)[C@@]1(NC(=O)[C@@H](NC(=O)Cc2ccccc2F)C(C)CC)CCc2[nH]c3c(C(F)(F)F)cccc3c2C1)C(C)CC (stereo partly drawn) [compound 173, (R)-3-{(S)-2-[2-(2-Fluoro-phenyl)-acetylamino]-3-methyl-pentanoylamino}-8-trifluoromethyl-2,3,4,9-tetrahydro-1H-carbazole-3-carboxylic acid {(S)-1-[(3-ethyl-thioureido)-methyl]-2-methyl-butyl}-amide] | 285%
10 | CCC(C)[C@H](NC(=O)Cc1ccccc1F)C(=O)N[C@]1(C(=O)N[C@H](C(=O)NCN2CCOCC2)C(C)CC)CCc2[nH]c3c(C(F)(F)F)cccc3c2C1 (stereo partly shown) [Compound 36] | 774%

Now from value to molecule:

Row | Normalized microsomal stability | SMILES
11 | 1889% | CCC(C)[C@H](NC(=O)Cc1ccccc1F)C(=O)N[C@]1(C(=O)N[C@H](C(=S)NCCCn2ccnc2)C(C)CC)CCc2[nH]c3c(C(F)(F)F)cccc3c2C1 (stereo partly drawn) [Compound 74, (R)-3-{(S)-2-[2-(2-Fluoro-phenyl)-acetylamino]-3-methyl-pentanoylamino}-8-trifluoromethyl-2,3,4,9-tetrahydro-1H-carbazole-3-carboxylic acid [(S)-1-(3-imidazol-1-yl-propylthiocarbamoyl)-2-methyl-butyl]-amide]
12 | 611% | CCC(C)[C@H](NC(=O)Cc1ccccc1F)C(=O)N[C@]1(C(=O)N[C@H](C(=S)NCCN2CCOCC2)C(C)CC)CCc2[nH]c3c(C(F)(F)F)cccc3c2C1 (stereo partly drawn) [Compound 54, (R)-3-{(S)-2-[2-(2-Fluoro-phenyl)-acetylamino]-3-methyl-pentanoylamino}-8-trifluoromethyl-2,3,4,9-tetrahydro-1H-carbazole-3-carboxylic acid [(S)-2-methyl-1-(2-morpholin-4-yl-ethylthiocarbamoyl)-butyl]-amide]
13 | 307% | CCC(C)[C@H](NC(=O)NCc1ccc(OC)cc1)C(=O)N[C@]1(C(=O)N[C@H](C(N)=S)C(C)CC)CCc2[nH]c3c(C(F)(F)F)cccc3c2C1 (stereo partly drawn) [compound 239, (R)-3-{(S)-2-[3-(4-Methoxy-benzyl)-ureido]-3-methyl-pentanoylamino}-8-trifluoromethyl-2,3,4,9-tetrahydro-1H-carbazole-3-carboxylic acid ((S)-2-methyl-1-thiocarbamoyl-butyl)-amide]
14 | 1350% | CCC(C)[C@H](NC(=O)Cc1ccccc1F)C(=O)N[C@]1(C(=O)N[C@H](C(=O)NCc2cncnc2)C(C)CC)CCc2[nH]c3c(C(F)(F)F)cccc3c2C1 (stereo partly shown) [compound 183]
15 | 1096% | CCC(C)[C@H](NC(=O)NCc1ccccc1F)C(=O)N[C@]1(C(=O)N[C@H](C(=O)NNc2ccccc2)C(C)CC)CCc2[nH]c3c(C(F)(F)F)cccc3c2C1 (stereo partly drawn) [compound 244, (R)-3-{(S)-2-[3-(2-Fluoro-benzyl)-ureido]-3-methyl-pentanoylamino}-8-trifluoromethyl-2,3,4,9-tetrahydro-1H-carbazole-3-carboxylic acid [(S)-2-methyl-1-(N′-phenyl-hydrazinocarbonyl)-butyl]-amide]
16 | 1328% | CCC(C)[C@H](NC(=O)Cc1ccncc1)C(=O)N[C@]1(C(=O)N[C@H](C(N)=S)C(C)CC)CCc2[nH]c3c(C(F)(F)F)cccc3c2C1 (stereo partly drawn) [compound 236, (R)-3-[(S)-3-Methyl-2-(2-pyridin-4-yl-acetylamino)-pentanoylamino]-8-trifluoromethyl-2,3,4,9-tetrahydro-1H-carbazole-3-carboxylic acid ((S)-2-methyl-1-thiocarbamoyl-butyl)-amide]
